Measured values reported in PubChem BioAssay (NCI).
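Growth conditions: 96-well plates. Treatment: test compound, 48 hours, 5 concentrations. Analysis: linear interpolation between bracketing concentrations; unreached endpoints set to highest concentration. GI50 marks 50% less growth. TGI is the concentration that stops growth completely.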

Legend:
Experiment in all cases: NCI anticancer screen, dose series, 48 h
SW-620 colon = tested on: SW-620 colon
NCI-H460 lung = tested on: NCI-H460 lung
PC-3 prostate = tested on: PC-3 prostate
T-47D breast = tested on: T-47D breast
CAKI-1 renal = tested on: CAKI-1 renal
HS 578T breast = tested on: HS 578T breast
MALME-3M melanoma = tested on: MALME-3M melanoma
HOP-62 NSCLC = tested on: HOP-62 NSCLC
K-562 leukemia = tested on: K-562 leukemia
COLO 205 colon = tested on: COLO 205 colon

Row | SMILES | GI50 (SW-620 colon) [µM] | TGI (SW-620 colon) [µM] | GI50 (NCI-H460 lung) [µM] | TGI (NCI-H460 lung) [µM] | GI50 (PC-3 prostate) [nM] | TGI (PC-3 prostate) [µM] | GI50 (T-47D breast) [µM] | TGI (T-47D breast) [µM] | GI50 (CAKI-1 renal) [µM] | TGI (CAKI-1 renal) [µM] | GI50 (HS 578T breast) [µM] | TGI (HS 578T breast) [µM] | GI50 (MALME-3M melanoma) [µM] | TGI (MALME-3M melanoma) [µM] | GI50 (HOP-62 NSCLC) [µM] | TGI (HOP-62 NSCLC) [µM] | GI50 (K-562 leukemia) [nM] | TGI (K-562 leukemia) [µM] | GI50 (COLO 205 colon) [µM] | TGI (COLO 205 colon) [µM]
1 | CCN1CCN(CCNc2nccc(-c3c(-c4ccc(F)c(O)c4)nc4occn34)n2)S1(=O)=O | 8.42 | > 100 | 4.92 | > 100 | 2120 | > 100 | 2.13 | 24.6 | 4.3 | > 100 | 6.75 | > 100 | 3.8 | > 100 | 5.97 | > 100 | 3670 | > 100 | 4.6 | > 100
2 | CCC1=C(c2ccc(OC)cc2)C(C)(C)Oc2c1ccc(O)c2CN1CCCC1 | 1.71 | 3.3 | 1.7 | 3.59 | 2580 | 29.3 | 1.45 | 4.64 | 2.95 | 30.4 | 3.44 | 35.1 | 2.05 | 5.36 | 1.99 | 7.03 | 759 | 3.1 | 14.9 | 87.4
3 | CN(C)CCNc1ccc2ncn3c4ccc(O)cc4c(=O)c1c23 |  | 11.8 |  | 6.5 |  | 10.8 |  | 25 |  | 4.83 |  | 8.19 |  | 14.4 |  | 5.35 |  | 29 |  | 9.32
4 | Cc1c(Cn2c(C)nc3c(C(=O)O)cc(N4CCOCC4)cc32)cccc1C(F)(F)F | 45.5 | > 100 | 40 | > 100 | 6380 | > 100 | 36.7 | > 100 | 7.44 | > 100 | 50.5 | > 100 | > 69.7 | > 100 | 37.5 | > 100 | > 77200 | > 100 | 49.2 | > 100
5 | COc1cc(CCC[P+](c2ccccc2)(c2ccccc2)c2ccccc2)c(OC)c2c1OCO2 | 1.83 | 11.4 | 1.81 | 5.58 | 1550 | > 100 | 0.419 | 14.7 | 2.42 | 7.18 | 1.74 | 8.54 | 0.602 | 6.92 | 2.91 | 11.3 | 659 | > 100 | 0.907 | 3.38
6 | Cc1ccc(OCC2CO2)c(Br)c1 (stereo not given) |  | 33 |  | 66 |  | > 100 |  | > 100 |  | > 100 |  | > 100 |  | > 100 |  | > 100 |  | 71.6 |  | 32.3
7 | CSc1ccc(C2=NN(C(C)=O)C(c3ccc(-c4cc(Cl)c(Cl)cc4Cl)o3)C2)cc1 (stereo not given) | 18.5 | 33.2 | 17.2 | 32.2 | 11200 | 30.7 | 11.9 | 37.2 | 19.2 | 43.2 | 22.8 | 53 | 19.5 | 39.9 | 15.8 | 29.4 | 14800 | 34.2 | 16.8 | 32.1
8 | CC1(C)N=C(N)N=C(N)N1c1ccc(CNC(=O)Nc2ccc(S(=O)(=O)F)c(Cl)c2)c(Cl)c1 | 0.122 | > 100 | 0.0456 | > 100 | 67.7 | > 100 | 11.6 | > 100 | 12.5 | > 100 | 21.8 | > 100 | 17.3 | > 100 | 9.81 | > 100 | 257 | > 100 | 0.867 | > 100
